Assays:
Format in all cases: cell-based
[1] = test system: phosphorylation of NDRG1 at Thr346; experiment: NDRG1 phosphorylation in HEK293 cells, immunoblot; settings: HEK293, 8 h; for pNDRG1 phosphorylation: basal, no inhibition of Akt
Method: (§1) Figure 3 Characterization of cellular activities of SGK3-PROTAC1 and cisSGK3-PROTAC1. (A) HEK293 cells were first treated for 8 h with 0.03–3 μM SGK3-PROTAC1 and cisSGK3-PROTAC1. One hour before lysis, cells were treated with 3 μM AZD5363. Lysates were subjected to immunoblot analysis with the indicated antibodies. […] Lysates were subjected to immunoblot analysis with the indicated antibodies. (C) HEK293 cells were treated for up to 48 h with SGK3-PROTAC1 (0.3 μM), and lysates were analyzed by immunoblot analysis using the indicated antibodies. (D) HEK293 cells were treated for 24 h with SGK3-PROTAC1. Cells were washed three times with DMEM to wash out the compound, and recovery of SGK3 expression protein was analyzed by immunoblot analysis. (E–G) As in A except that CAMA-1 (E), ZR-75-1 (F), and JIMT-1 (G) cells were employed rather than HEK293 cells.
To study the impact of SGK3-PROTAC1 on phosphorylation of a physiological substrate, we monitored phosphorylation of NDRG1 at Thr346.[37] This site is also phosphorylated by Akt; therefore we treated cells with increasing doses of SGK3-PROTAC1 and cisSGK3-PROTAC1 for 8 h, with the addition of an Akt inhibitor (3 μM AZD5363) 1 h before lysis, to remove the impact of Akt phosphorylation of NDRG1. […] Concentrations of cisSGK3-PROTAC1 of above 1 μM were required to lower NDRG1 phosphorylation. […] This is consistent with previous work in HEK293 cells showing that inhibition of both Akt and SGK3 is required to block NDRG1 phosphorylation.[8],[37]
(§2) All cell treatments were carried out as described in figure legends, to a final DMSO concentration of 0.1% (v/v). Lysates were quantified. Immunoblotting was performed using standard procedures, described in brief below. Lysate concentration was quantified by Bradford Assay, and 10 μg of lysate was loaded in the LDS sample buffer for SDS-PAGE electrophoresis on Novex 4–12% Bis–Tris gels. Proteins were electrophoretically transferred onto nitrocellulose membranes (Amersham Protran 0.45 μm NC; GE Healthcare) at 80 V for 80 min on ice in transfer buffer. Transferred membranes were blocked with 5% (w/v) nonfat dry milk dissolved in TBS-T [20 mM Tris/HCl, pH 7.5, 150 mM NaCl, and 0.1% (v/v) Tween 20] at RT for 30 min, before incubation with the primary antibody overnight at 4 °C. The signal was produced with near-infrared secondary antibodies and detected using a Licor Biosciences Odyssey System, and the signal was quantified in Image Studio Lite.

SGK3 = target: T1, SGK3 (Homo sapiens, UniProt Q96BR1); experiment: SGK3 degradation in CAMA-1 cells, immunoblot; settings: for SGK3 expression: CAMA-1, 5 days 1 μM GDC0941 or AZD5363, 0.3 μM for 5 days or 8 h
T1 sequence (Q96BR1 1-496): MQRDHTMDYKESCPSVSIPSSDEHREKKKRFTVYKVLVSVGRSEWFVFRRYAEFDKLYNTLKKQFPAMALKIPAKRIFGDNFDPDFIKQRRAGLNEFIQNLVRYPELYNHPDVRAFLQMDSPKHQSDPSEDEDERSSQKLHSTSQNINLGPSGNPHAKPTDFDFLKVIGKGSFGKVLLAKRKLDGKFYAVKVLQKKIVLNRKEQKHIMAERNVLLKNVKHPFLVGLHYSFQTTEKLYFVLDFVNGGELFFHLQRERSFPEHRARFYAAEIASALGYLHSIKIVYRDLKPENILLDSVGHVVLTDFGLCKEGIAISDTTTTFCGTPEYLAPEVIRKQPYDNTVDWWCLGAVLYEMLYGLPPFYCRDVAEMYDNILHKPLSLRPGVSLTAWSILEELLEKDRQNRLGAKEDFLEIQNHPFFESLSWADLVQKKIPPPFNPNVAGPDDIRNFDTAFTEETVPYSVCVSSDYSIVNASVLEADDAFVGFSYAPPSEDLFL
Method: as §1
Figure 5 SGK3-PROTAC1-mediated degradation of SGK3 inhibits Akt-independent activation of mTORC1 in cancer cell lines treated with Akt or PI3K inhibitors. CAMA-1 (A, C) or ZR-75-1 (B, D) were treated for 5 days with 1 μM GDC0941 (A, B) or 1 μM AZD5363 (C, D). Cells were treated with the compounds indicated for either 5 days or 8 h before lysis; cells were treated with the compounds indicated. Cell lysates were subject to immunoblot analysis with the indicated antibodies.
as §2

[2] = test system: mTORC1-mediated phosphorylation of S6K1 at Thr389; experiment: mTORC1 signaling in CAMA-1 cells treated with PI3K or Akt inhibitor, immunoblot; settings: CAMA-1, 5 days 1 μM GDC0941 or AZD5363; 0.3 μM
Method: We therefore aimed to investigate the effect that degradation of SGK3 would have on this resistance pathway and whether SGK3-PROTAC1 treatment could reverse inhibitor resistance. To investigate the effect of SGK3-PROTAC1 under these conditions, we treated CAMA-1 (Figure 5A,C) or ZR-75-1 (Figure 5B,D) for 5 days with either a class 1A PI3K inhibitor (GDC0941 1 μM;[38]Figure 5A,B) or an Akt inhibitor (AZD5363, 1 μM;[39]Figure 5C,D). These cells were treated with SGK3-PROTAC1 or cisSGK3-PROTAC1 (0.3 μM) for either 5 days in combination with the inhibitors or 8 h before lysis.
Figure 5 SGK3-PROTAC1-mediated degradation of SGK3 inhibits Akt-independent activation of mTORC1 in cancer cell lines treated with Akt or PI3K inhibitors. CAMA-1 (A, C) or ZR-75-1 (B, D) were treated for 5 days with 1 μM GDC0941 (A, B) or 1 μM AZD5363 (C, D). […]
All cell treatments were carried out as described in figure legends, to a final DMSO concentration of 0.1% (v/v). Lysates were quantified. […] Lysate concentration was quantified by Bradford Assay, and 10 μg of lysate was loaded in the LDS sample buffer for SDS-PAGE electrophoresis on Novex 4–12% Bis–Tris gels. […] The signal was produced with near-infrared secondary antibodies and detected using a Licor Biosciences Odyssey System, and the signal was quantified in Image Studio Lite.

[3] = 0.1 μM, 3 μM AZD5363 1 h before lysis
[4] = 0.3 μM SGK3-PROTAC1, 1 μM 14H, 1 μM 308-R
[5] = in the presence of 3 μM AZD5363, 0.3 μM SGK3-PROTAC1, 1 μM 14H, 1 μM 308-R

SMILES | NDRG1 phosphorylation [1, 3] | pNDRG1 phosphorylation [1, 4] | NDRG1 phosphorylation [1, 5] | concentration inducing degradation of SGK3 (SGK3; CAMA-1, 8 h) [µM] | SGK3 expression (SGK3) | phosphorylation of S6K1 at Thr389 [2] | concentration required to lower NDRG1 phosphorylation ([1]; 3 μM AZD5363 1 h before lysis) | degradation of SGK3 (SGK3; CAMA-1, 8 h, 0.03–3 μM)
Cc1ccc(F)c(S(=O)(=O)Nc2ccc(-c3nc(OC[C@H]4CN(CCCCCCOCCOCCOCC(=O)N[C@H](C(=O)N5C[C@H](O)C[C@H]5C(=O)NCc5ccc(-c6scnc6C)cc5)C(C)(C)C)CCO4)c4cn[nH]c4n3)cc2)c1 [SGK3-PROTAC1] | reduced NDRG1 phosphorylation | minimal effect | markedly suppressed | > 0.1 | substantially reduced | suppressed | – | –
Cc1ccc(F)c(S(=O)(=O)Nc2ccc(-c3nc(OC[C@H]4CNCCO4)c4cn[nH]c4n3)cc2)c1 [308-R, reference compound] | – | minimal effect | markedly suppressed | – | – | – | – | –
Cc1ccc(F)c(S(=O)(=O)Nc2ccc(-c3nc(OC[C@H]4CN(CCCCCCOCCOCCOCC(=O)N[C@H](C(=O)N5C[C@@H](O)C[C@H]5C(=O)NCc5ccc(-c6scnc6C)cc5)C(C)(C)C)CCO4)c4cn[nH]c4n3)cc2)c1 [cisSGK3-PROTAC1] | no effect | – | – | – | no significant effect | no significant effect | above 1 μM | no impact
